Assay results published in patent publication US9637473B2, “Acrylamide derivatives as antimalarial agents” (priority 2013, dated 2017).
Counter-ions that a name gives are not always drawn.

Each compound was assayed on P. Falciparum NF54 (assay: Plasmodium falciparum in vitro assay ([3H]-hypoxanthine incorporation)). Details: P. Falciparum NF54, erythrocytic stages in human red blood cells, 50% human serum.
Type: cell-based
In short: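 Activity against the blood stages of Plasmodium falciparum growing in human red blood cells was measured by how much [3H]-hypoxanthine the parasites took up. Filters were dried, sealed in plastic foil containing 10 mL of scintillation fluid, and read on a Betaplate liquid scintillation counter. IC50 values came from sigmoidal inhibition curves fitted in Microsoft Excel.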

Row | Structure (SMILES) | IC50 [nM]
1 | CN(c1ccncc1)c1ccc(CN(C(=O)/C=C/c2ccc(C(F)(F)F)cc2)[C@H]2CCCNC2)cc1 [Example 2, (E)-N-[4-(Methyl-pyridin-4-yl-amino)-benzyl]-N-(S)-piperidin-3-yl-3-(4-trifluoromethyl-phenyl)-acrylamide] | 82

Same assay, conditions: Plasmodium falciparum, Erythrocyte, P. Falciparum NF54, erythrocytic stages in human red blood cells, 50% human serum

Row | Structure (SMILES) | IC50 [nM]
2 | CN(c1ccncc1)c1ccc(CN(C(=O)/C=C/c2ccc(C(F)(F)F)cc2)[C@H]2CC[C@H](N(C)C)CC2)cc1 [Example 190, (±)-trans-(E)-N-(4-Dimethylamino-cyclohexyl)-N-[4-(methyl-pyridin-4-yl-amino)-benzyl]-3-(4-trifluoromethyl-phenyl)-acrylamide] | 63
3 | Cc1cc(Nc2ccc(CN(C(=O)/C=C/c3ccc(C(F)(F)F)cc3)C3CCN(Cc4cc(C)on4)CC3)cc2)ccn1 [Example 34, (E)-N-[1-(5-Methyl-isoxazol-3-ylmethyl)-piperidin-4-yl]-N-[4-(2-methyl-pyridin-4-ylamino)-benzyl]-3-(4-trifluoromethyl-phenyl)-acrylamide] | 242
4 | Cc1cc(Nc2ccc(CN(C(=O)/C=C/c3ccc(C(F)(F)F)cc3)C3CCN(Cc4scnc4C)CC3)cc2)ccn1 [Example 35, (E)-N-[4-(2-Methyl-pyridin-4-ylamino)-benzyl]-N-[1-(4-methyl-thiazol-5-ylmethyl)-piperidin-4-yl]-3-(4-trifluoromethyl-phenyl)-acrylamide] | 243
5 | Cc1cc(Nc2ccc(CN(C(=O)/C=C/c3ccc(C(F)(F)F)cc3)C3CCN(Cc4cccnc4)CC3)cc2)ccn1 [Example 48, (E)-N-[4-(2-Methyl-pyridin-4-ylamino)-benzyl]-N-(1-pyridin-3-ylmethyl-piperidin-4-yl)-3-(4-trifluoromethyl-phenyl)-acrylamide] | 101
6 | Cc1ccc(Nc2ccc(CN(C(=O)/C=C/c3ccc(C(F)(F)F)cc3)C3CCN(C4CCCC4)CC3)cc2)nc1 [Example 98, (E)-N-(1-Cyclopentyl-piperidin-4-yl)-N-[4-(5-methyl-pyridin-2-ylamino)-benzyl]-3-(4-trifluoromethyl-phenyl)-acrylamide] | 370
7 | Cc1cc(Nc2ccc(CN(C(=O)/C=C/c3ccc(C(F)(F)F)cc3)C3CCN(Cc4nc(C)oc4C)CC3)cc2)ccn1 [Example 32, (E)-N-[1-(2,5-Dimethyl-oxazol-4-ylmethyl)-piperidin-4-yl]-N-[4-(2-methyl-pyridin-4-ylamino)-benzyl]-3-(4-trifluoromethyl-phenyl)-acrylamide] | 89
8 | CN1CCN(c2ccc(CN(C(=O)/C=C/c3ccc(C(F)(F)F)cc3)C3CCN(C4CCCC4)CC3)cc2)CC1 [Example 200, (E)-N-(1-Cyclopentyl-piperidin-4-yl)-N-[4-(4-methyl-piperazin-1-yl)-benzyl]-3-(4-trifluoromethyl-phenyl)-acrylamide] | 232
9 | O=C(/C=C/c1ccc(C(F)(F)F)cc1)N(Cc1ccc(Oc2ccncc2)cc1)C1CCN(C2CCCC2)CC1 [Example 207, (E)-N-(1-Cyclopentyl-piperidin-4-yl)-N-[4-(pyridin-4-yloxy)-benzyl]-3-(4-trifluoromethyl-phenyl)-acrylamide] | 412
10 | CN(c1ccncc1)c1ccc(CN(C(=O)/C=C/c2ccc(C(F)(F)F)cc2)C2CCN(CCc3ccccc3)CC2)cc1 [Example 14, (E)-N-[4-(Methyl-pyridin-4-yl-amino)-benzyl]-N-(1-phenethyl-piperidin-4-yl)-3-(4-trifluoromethyl-phenyl)-acrylamide] | 55
11 | CN(c1ccncc1)c1ccc(CN(C(=O)/C=C/c2ccc(C(F)(F)F)cc2)C2CCN(Cc3ncccn3)CC2)cc1 [Example 29, (E)-N-[4-(Methyl-pyridin-4-yl-amino)-benzyl]-N-(1-pyrimidin-2-ylmethyl-piperidin-4-yl)-3-(4-trifluoromethyl-phenyl)-acrylamide] | 296
12 | Cc1cc(Nc2ccc(CN(C(=O)/C=C/c3ccc(C(F)(F)F)cc3)C3CCN(CCC(F)(F)F)CC3)cc2)ccn1 [Example 39, (E)-N-[4-(2-Methyl-pyridin-4-ylamino)-benzyl]-3-(4-trifluoromethyl-phenyl)-N-[1-(3,3,3-trifluoro-propyl)-piperidin-4-yl]-acrylamide] | 155
13 | CN1CCC(N2CCC(N(Cc3ccc(N(C)c4ccncc4)cc3)C(=O)/C=C/c3ccc(C#N)cc3)CC2)CC1 [Example 179, (E)-3-(4-Cyano-phenyl)-N-(1′-methyl-[1,4′]bipiperidinyl-4-yl)-N-[4-(methyl-pyridin-4-yl-amino)-benzyl]-acrylamide] | 54
14 | CC(C)N1CCC(N(Cc2cccc(N(C)c3ccncc3)c2)C(=O)/C=C/c2ccc(C(F)(F)F)cc2)CC1 [Example 142, (E)-N-(1-Isopropyl-piperidin-4-yl)-N-[3-(methyl-pyridin-4-yl-amino)-benzyl]-3-(4-trifluoromethyl-phenyl)-acrylamide formate] | 27
15 | CN(c1ccncc1)c1ccc(CN(C(=O)/C=C/c2ccc(C(F)(F)F)cc2)C2CCN(Cc3ccnn3C)CC2)cc1 [Example 17, (E)-N-[1-(2-Methyl-2H-pyrazol-3-ylmethyl)-piperidin-4-yl]-N-[4-(methyl-pyridin-4-yl-amino)-benzyl]-3-(4-trifluoromethyl-phenyl)-acrylamide] | 180
16 | CN1CCC(N(C)c2ccc(CN(C(=O)/C=C/c3ccc(OC(F)(F)F)cc3)C3CCN(Cc4ccccc4)CC3)cc2)CC1 [Example 178, (E)-N-(1-Benzyl-piperidin-4-yl)-N-{4-[methyl-(1-methyl-piperidin-4-yl)-amino]-benzyl}-3-(4-trifluoromethoxy-phenyl)-acrylamide] | 343
17 | CC(C)CCN1CCC[C@@H](N(Cc2ccc(N(C)c3ccncc3)cc2)C(=O)/C=C/c2ccc(C(F)(F)F)cc2)C1 [Example 62, (R,E)-N-(1-isopentylpiperidin-3-yl)-N-(4-(methyl(pyridin-4-yl)amino)benzyl)-3-(4-(trifluoromethyl)phenyl)acrylamide] | 70
18 | Cc1cc(Nc2ccc(CN(CCCN3CCOCC3)C(=O)/C=C/c3ccc(C(F)(F)F)cc3)cc2)ccn1 [Example 173, (E)-N-[4-(2-Methyl-pyridin-4-ylamino)-benzyl]-N-(3-morpholin-4-yl-propyl)-3-(4-trifluoromethyl-phenyl)-acrylamide] | 355
19 | Cc1cnccc1Nc1cccc(CN(C(=O)/C=C/c2ccc(C(F)(F)F)cc2)C2CCN(C(C)C)CC2)n1 [Example 130, (E)-N-(1-Isopropyl-piperidin-4-yl)-N-[6-(3-methyl-pyridin-4-ylamino)-pyridin-2-ylmethyl]-3-(4-trifluoromethyl-phenyl)-acrylamide formate] | 42
20 | Cc1cc(N(C)c2cccc(CN(C(=O)/C=C/c3ccc(C(F)(F)F)cc3)C3CCN(C(C)C)CC3)c2)ccn1 [Example 121, (E)-N-(1-Isopropyl-piperidin-4-yl)-N-{3-[methyl-(2-methyl-pyridin-4-yl)-amino]-benzyl}-3-(4-trifluoromethyl-phenyl)-acrylamide formate] | 76
21 | CN1CCC(N2CCC(CN(Cc3ccc(N(C)c4ccncc4)cc3)C(=O)/C=C/c3ccc(C(F)(F)F)cc3)CC2)CC1 [Example 187, (E)-N-(1′-Methyl-[1,4′]bipiperidinyl-4-ylmethyl)-N-[4-(methyl-pyridin-4-yl-amino)-benzyl]-3-(4-trifluoromethyl-phenyl)-acrylamide] | 16
22 | CN(c1ccncc1)c1ccc(CN(C(=O)/C=C/c2ccc(C(F)(F)F)cc2)C2CCN(Cc3ccc(C(F)(F)F)cc3)CC2)cc1 [Example 3, (E)-N-[4-(Methyl-pyridin-4-yl-amino)-benzyl]-N-[1-(4-trifluoromethyl-benzyl)-piperidin-4-yl]-3-(4-trifluoromethyl-phenyl)-acrylamide] | 72
23 | Cc1cc(Nc2cncc(CN(C(=O)/C=C/c3ccc(C(F)(F)F)cc3)C3CCN(C(C)C)CC3)c2)ccn1 [Example 136, (E)-N-(1-Isopropyl-piperidin-4-yl)-N-[5-(2-methyl-pyridin-4-ylamino)-pyridin-3-ylmethyl]-3-(4-trifluoromethyl-phenyl)-acrylamide formate] | 80
24 | Cc1cc(Nc2ccc(CN(C(=O)/C=C/c3ccc(C(F)(F)F)cc3)C3CCN(C4CCN(C)CC4)CC3)cc2)ccn1 [Example 116, (E)-N-(1′-Methyl-[1,4′]bipiperidinyl-4-yl)-N-[4-(2-methyl-pyridin-4-ylamino)-benzyl]-3-(4-trifluoromethyl-phenyl)-acrylamide] | 70
25 | CN(c1ccncc1)c1ccc(CN(C(=O)/C=C/c2ccc(C(F)(F)F)cc2)C2CCNCC2)cc1 [Example 1, (E)-N-[4-(Methyl-pyridin-4-yl-amino)-benzyl]-N-piperidin-4-yl-3-(4-trifluoromethyl-phenyl)-acrylamide] | 121
26 | O=C(/C=C/c1ccc(C(F)(F)F)cc1)N(Cc1ccnc(N2CCCC2)c1)C1CCN(C2CCCC2)CC1 [Example 206, (E)-N-(1-Cyclopentyl-piperidin-4-yl)-N-(2-pyrrolidin-1-yl-pyridin-4-ylmethyl)-3-(4-trifluoromethyl-phenyl)-acrylamide] | 451
27 | Cc1cc(Nc2cccc(CN(C(=O)/C=C/c3ccc(C(F)(F)F)cc3)C3CCN(C(C)C)CC3)c2)ccn1 [Example 122, (E)-N-(1-Isopropyl-piperidin-4-yl)-N-[3-(2-methyl-pyridin-4-ylamino)-benzyl]-3-(4-trifluoromethyl-phenyl)-acrylamide formate] | 43
28 | CCN1CCC(N(Cc2ccc(N(C)c3ccncc3)cc2)C(=O)/C=C/c2ccc(C(F)(F)F)cc2)CC1 [Example 7, (E)-N-(1-Ethyl-piperidin-4-yl)-N-[4-(methyl-pyridin-4-yl-amino)-benzyl]-3-(4-trifluoromethyl-phenyl)-acrylamide] | 26
29 | CN(c1ccc(CN(C(=O)/C=C/c2ccc(C(F)(F)F)cc2)C2CCN(C3CCCC3)CC2)cc1)c1cccnc1 [Example 96, (E)-N-(1-Cyclopentyl-piperidin-4-yl)-N-[4-(methyl-pyridin-3-yl-amino)-benzyl]-3-(4-trifluoromethyl-phenyl)-acrylamide] | 351
